Laboratory results taken from PubChem BioAssay (NCI).
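Test compounds were applied to cells in 96-well plates for 48 hours at 5 doses. At the TGI there is no net growth.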

What was measured:
Experiment in all cases: NCI anticancer screen, dose series, 48 h
[1] = test system: 786-0 renal
[2] = test system: A498 renal
[3] = test system: A549 NSCLC
[4] = test system: ACHN renal
[5] = test system: BT-549 breast
[6] = test system: CAKI-1 renal
[7] = test system: CCRF-CEM leukemia
[8] = test system: COLO 205 colon
[9] = test system: DU-145 prostate
[10] = test system: EKVX NSCLC
[11] = test system: HCT-116 colon
[12] = test system: HCT-15 colon
[13] = test system: HL-60(TB) leukemia
[14] = test system: HOP-62 NSCLC
[15] = test system: HOP-92 NSCLC
[16] = test system: HS 578T breast
[17] = test system: HT29 colon
[18] = test system: IGROV1 ovarian
[19] = test system: K-562 leukemia
[20] = test system: KM12 colon
[21] = test system: LOX IMVI melanoma
[22] = test system: M14 melanoma
[23] = test system: MALME-3M melanoma
[24] = test system: MDA-MB-231 breast
[25] = test system: MDA-MB-435
[26] = test system: MDA-N
[27] = test system: MOLT-4 leukemia
[28] = test system: NCI-H226 lung
[29] = test system: NCI-H23 lung
[30] = test system: NCI-H460 lung
[31] = test system: NCI-H522 lung
[32] = test system: NCI/ADR-RES ovarian
[33] = test system: OVCAR-3 ovarian
[34] = test system: OVCAR-5 ovarian
[35] = test system: OVCAR-8 ovarian
[36] = test system: PC-3 prostate
[37] = test system: RPMI-8226 leukemia
[38] = test system: RXF 393 renal
[39] = test system: SF-268 CNS
[40] = test system: SF-295 CNS
[41] = test system: SF-539 CNS
[42] = test system: SK-MEL-2 melanoma
[43] = test system: SK-MEL-28 melanoma
[44] = test system: SK-MEL-5 melanoma
[45] = test system: SK-OV-3 ovarian
[46] = test system: SN12C renal
[47] = test system: SNB-19 CNS
[48] = test system: SNB-75 CNS
[49] = test system: SW-620 colon
[50] = test system: T-47D breast
[51] = test system: TK-10 renal
[52] = test system: U251 CNS
[53] = test system: UACC-257 melanoma
[54] = test system: UACC-62 melanoma
[55] = test system: UO-31 renal
[56] = test system: MCF7 breast
[57] = test system: OVCAR-4 ovarian

CC1=NNC(=O)C1C1C=C(c2c[nH]c3ccccc23)OC1=O (stereo not drawn)
TGI [1]: > 100 µM | TGI [2]: > 100 µM | TGI [3]: > 100 µM | TGI [4]: > 100 µM | TGI [5]: > 100 µM | TGI [6]: > 100 µM | TGI [7]: > 100 µM | TGI [8]: > 100 µM | TGI [9]: > 100 µM | TGI [10]: > 100 µM | TGI [11]: > 100 µM | TGI [12]: > 100 µM | TGI [13]: > 100 µM | TGI [14]: > 100 µM | TGI [15]: > 100 µM | TGI [16]: > 100 µM | TGI [17]: > 100 µM | TGI [18]: > 100 µM | TGI [19]: > 100 µM | TGI [20]: > 100 µM | TGI [21]: > 100 µM | TGI [22]: > 100 µM | TGI [23]: > 100 µM | TGI [24]: > 100 µM | TGI [25]: > 100 µM | TGI [26]: > 100 µM | TGI [27]: > 100 µM | TGI [28]: > 100 µM | TGI [29]: > 100 µM | TGI [30]: > 100 µM | TGI [31]: > 100 µM | TGI [32]: > 100 µM | TGI [33]: > 100 µM | TGI [34]: > 100 µM | TGI [35]: > 100 µM | TGI [36]: > 100 µM | TGI [37]: > 100 µM | TGI [38]: > 100 µM | TGI [39]: > 100 µM | TGI [40]: > 100 µM | TGI [41]: > 100 µM | TGI [42]: > 100 µM | TGI [43]: > 100 µM | TGI [44]: > 100 µM | TGI [45]: > 100 µM | TGI [46]: > 100 µM | TGI [47]: > 100 µM | TGI [48]: > 100 µM | TGI [49]: > 100 µM | TGI [50]: > 100 µM | TGI [51]: > 100 µM | TGI [52]: > 100 µM | TGI [53]: > 100 µM | TGI [54]: > 100 µM | TGI [55]: > 100 µM

Oc1cc(O)c2c(c1)OC(c1ccc(O)c(O)c1)C(O)C2c1c(O)cc(O)c2c1OC(c1ccc(O)c(O)c1)C(O)C2 (stereo not drawn)
TGI [1]: > 100 µM | TGI [2]: > 100 µM | TGI [3]: > 100 µM | TGI [4]: > 100 µM | TGI [5]: > 100 µM | TGI [6]: 67.5 µM | TGI [8]: > 100 µM | TGI [9]: > 100 µM | TGI [10]: > 100 µM | TGI [11]: > 100 µM | TGI [12]: > 100 µM | TGI [14]: > 100 µM | TGI [15]: > 100 µM | TGI [16]: > 100 µM | TGI [17]: > 100 µM | TGI [18]: > 100 µM | TGI [20]: > 100 µM | TGI [21]: > 100 µM | TGI [22]: > 100 µM | TGI [23]: > 100 µM | TGI [56]: > 100 µM | TGI [24]: > 100 µM | TGI [25]: > 100 µM | TGI [26]: > 100 µM | TGI [28]: > 100 µM | TGI [29]: > 100 µM | TGI [30]: > 100 µM | TGI [31]: > 100 µM | TGI [32]: > 100 µM | TGI [33]: > 100 µM | TGI [57]: > 100 µM | TGI [34]: > 100 µM | TGI [35]: > 100 µM | TGI [36]: > 100 µM | TGI [37]: > 100 µM | TGI [38]: > 100 µM | TGI [39]: > 100 µM | TGI [40]: > 100 µM | TGI [41]: > 100 µM | TGI [42]: > 100 µM | TGI [43]: > 100 µM | TGI [44]: > 100 µM | TGI [45]: > 100 µM | TGI [46]: > 100 µM | TGI [47]: > 100 µM | TGI [48]: > 100 µM | TGI [49]: > 100 µM | TGI [50]: > 100 µM | TGI [51]: > 100 µM | TGI [52]: > 100 µM | TGI [53]: > 100 µM | TGI [54]: > 100 µM | TGI [55]: > 100 µM
